Molecules are shown by their SMILES. In brackets after ≈: the same amount, converted by molar mass. Entries after “also recorded” stand apart in the source; their conditions may differ. Read-outs that look alike come from different tables or passages of the source.

Series [1] concerns the target T1, AF4-AF9 interaction (Homo sapiens, UniProt P42568).
T1 construct: made in house; host or cells: GST-AF4 from E. coli; AF9 by coupled in vitro transcription/translation (Promega)
T1 sequence (P42568 211-568): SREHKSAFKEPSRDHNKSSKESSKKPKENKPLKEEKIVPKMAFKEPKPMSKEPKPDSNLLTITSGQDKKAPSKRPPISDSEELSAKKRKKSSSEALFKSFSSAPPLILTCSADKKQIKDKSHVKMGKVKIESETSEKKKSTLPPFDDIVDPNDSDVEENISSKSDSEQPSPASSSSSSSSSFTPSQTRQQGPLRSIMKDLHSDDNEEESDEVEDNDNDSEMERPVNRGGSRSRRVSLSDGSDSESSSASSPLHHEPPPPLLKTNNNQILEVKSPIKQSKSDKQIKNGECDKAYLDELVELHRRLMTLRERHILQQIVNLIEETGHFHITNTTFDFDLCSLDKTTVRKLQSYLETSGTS
Put plainly: Enzyme-linked protein binding assay, GST-AF4(749-775) and biotinylated AF9. Particulars: peptide 20 μg/ml; FIG. 2A. How it is done:
Next, an enzyme-linked protein binding assay was developed as a potential high throughput tool to semi-quantitatively assess the ability of various compounds to disrupt the AF4-AF9 interaction in vitro (FIGS. 2A and 2B).
GST-AF4 (749–775) SEQ ID NO: 107 was bound to glutathione-coated 96-well plates and incubated with biotinylated AF9 in conjunction with 20 μg/ml of the following peptides: • (a) Pen-[…], a fusion protein of PENETRATIN™ transporter peptide to the amino terminus of […](SEQ ID NO: 110, PFmut), • (b) Pen-[…], a fusion protein of the transporter protein PENETRATIN™ to the amino terminus of […](SEQ ID NO: 2; or PFWT), • (c) […] or […](SEQ ID NO: 111); • (d) […] or […] (SEQ ID NO: 112); • (e) […] or […](SEQ ID NO: 113), or with • (f) DMSO, or • (g) GST-Cx, a control.
The plate was washed and the retention of AF9 was determined by a colorimetric assay using streptavidin-alkaline phosphatase and pNPP as a substrate. […] At this same peptide concentration, PFmut (a) in col. […] The 10 amino acid peptide (d) in col. 6 is the smallest molecule found to have activity in vitro.

Another series has as its system B1 leukemia cell line. Nature of the series: MTT viability assay. The series is classed as cell-based. To be noted: 72 h, differing concentrations. The method, then:
(§1) All cell lines were maintained in RPMI 1640+10% FCS. 100 μl aliquots of cell suspension (5×10^5 cells/ml) were cultured in flat-bottomed 96 well plates in the presence of different concentrations of peptides. After 72 h incubation at 37° C. in humidified air containing 5% CO2, viable cell number was determined by MTT assay as follows: 10 μl of 3-[4,5-dimethylthiazol-2-yl]-2,5-diphenyl tetrazolium bromide (MTT) (5 mg/ml concentration) (Sigma) was added to each well and incubated further for 6 h. Formazan crystals that are formed during incubation were dissolved in 100 μl of acidified isopropanol. The optical density at 550 nm (which is linearly related to the number of viable cells) was measured using a plate spectrophotometer. Growth characteristics of the leukemia cell lines were also determined for cells by Trypan Blue exclusion.

Series [2] concerns MOLT-4 T-cell leukemia line. Put plainly: MTT viability assay. In kind it is cell-based. To be noted: 72 h, up to 200 μg/ml. How it is done: as §1
(Formazan colour is commonly taken as a measure of viable cells.)

Series [3] has as its system MV4-11 leukemia cell line. Put plainly: MTT viability assay. The series is classed as cell-based. Particulars: 72 h, differing concentrations. The method, then: as §1
The subject of series [4] is Reh B-precursor leukemia cell line. Nature of the series: MTT viability assay. In kind it is cell-based. To be noted: 72 h. The method, then:
as §1

The test system of a further series is THP-1 leukemia cell line. Nature of the series: MTT viability assay. Particulars: 72 h, varying concentrations. In kind it is cell-based. How it is done:
as §1

In series [5] the test system is hematopoietic progenitor cells (peripheral blood stem cells). Put plainly: Methylcellulose clonogenic assay. In kind it is cell-based, human. Particulars: 100 μg/ml, 72 h incubation; FIG. 4A. The source says:
PFWT is toxic to several leukemia cell lines raising the possibility that normal hematopoietic cells are also sensitive to the peptide. To verify whether PFWT has any effect on hematopoietic stem cells, standard methylcellulose-based assays were employed to enumerate the colony-forming potential of human peripheral blood and bone marrow stem cells.
Cryopreserved bone marrow and peripheral blood hematopoietic progenitor cells from healthy donors were thawed and diluted with M199 media (Invitrogen) to give a final DMSO concentration of 0.1%. Cells were incubated at room temperature for 2 h for equilibration. Nucleated cells at a concentration of 5×10^5 cells/ml were then incubated with the peptides PFWT or PFmut or DMSO control vehicle for 48 or 72 h. After the incubation period, 400 μl of the cell suspensions were suspended in 3.6 ml MethoCult GF H4434 methylcellulose media containing cytokines (erythropoietin, G-CSF, GM-CSF, stem cell factor, IL-3 and IL-6) (Stem Cell Technologies) and transferred to 25 mm plates with grids. The cells were plated in triplicate and incubated for 2 weeks at 37° C. with 5% CO2 in a humidified incubator. After 2 weeks, the number of colonies (>50 cells) per plate was counted under an inverted light microscope as a measure of progenitor cell viability.

Another series can be described thus: Solubility. The series is classed as physicochemical. The method, then: PFWT and PFmut are soluble in phosphate buffered saline (PBS) at a concentration of 1 mg/ml and in dimethylsulfoxide (DMSO) at >50 mg/ml (data not shown). In the initial experiments, peptides were dissolved in PBS but were dissolved in DMSO for the majority of the subsequent experiments.

Series [6] addresses T1, AF4-AF9 interaction. Nature of the series: Enzyme-linked protein binding assay, GST-AF4(749-775) and biotinylated AF9.
Where [7] appears, read: dimethylsulfoxide (DMSO), read-out: solubility in dimethylsulfoxide (DMSO).
The mark [8] stands for this setting: phosphate buffered saline (PBS), read-out: solubility in phosphate buffered saline (PBS).

`CC[C@H](C)[C@H](NC(=O)[C@H](CCCCN)NC(=O)[C@@H](NC(=O)[C@H](Cc1c[nH]c2ccccc12)NC(=O)[C@H](CC(C)C)NC(=O)[C@H](CCCCN)NC(=O)[C@H](CCCCN)NC(=O)[C@H](Cc1c[nH]c2ccccc12)NC(=O)[C@H](CCCCN)NC(=O)[C@H](CCSC)NC(=O)[C@H](CCCNC(=N)N)NC(=O)[C@H](CCCNC(=N)N)NC(=O)[C@H](CC(N)=O)NC(=O)[C@H](CCC(N)=O)NC(=O)[C@H](Cc1ccccc1)NC(=O)[C@H](Cc1c[nH]c2ccccc12)NC(=O)[C@H](CCCCN)NC(=O)[C@@H](NC(=O)[C@H](CCC(N)=O)NC(=O)[C@@H](N)CCCNC(=N)N)[C@@H](C)CC)C(C)C)C(=O)N[C@@H](CC(=O)O)C(=O)N[C@@H](CC(C)C)C(=O)N[C@@H](CC(=O)O)C(=O)N[C@@H](CC(C)C)C(=O)N[C@@H](CC(C)C)C(=O)N[C@@H](CO)C(=O)N[C@@H](CCCNC(=N)N)C(=O)N[C@H](C(=O)N1CCC[C@H]1C(=O)O)C(C)C` [PFWT]: on AF4-AF9 interaction [1], the “AF9 binding to GST-AF4 (retention of AF9)” value is “almost completely block AF9 binding”. Further, the cell viability result was “diminished; also recorded: inhibits” in the series with B1 leukemia cell line; “not affected” in [2]; “diminished; also recorded: inhibits” in [3]; “inhibited” in [4]; “inhibited to a much lesser extent; also recorded: not significantly inhibited” in the series on THP-1 leukemia cell line. Further, in series [5], the “colony forming potential (colonies >50 cells after 14 days)” value was “neither PFWT nor PFmut have any significant effect; also recorded: does not impair their colony forming potential”. For the same compound, the solubility in the series “Solubility” (setting [7]) was above 50000 µg/mL; in “Solubility” (setting [8]) it was 1000 µg/mL (≈ 264 µM). Further, the AF4-AF9 interaction result at AF4-AF9 interaction [6] (10 μg/ml, FIG. 2B) is reported as “abolished”. Further, the “concentration dependence of AF4-AF9 interaction” value on AF4-AF9 interaction [6] (FIG. 2B) was “dose dependent reduction; also recorded: displaces AF9 from AF4 in a concentration-dependant fashion”. The “lowest concentration showing activity” value at AF4-AF9 interaction [6] (FIG. 2B) worked out at 10 ng/mL.
Consider `CC[C@H](C)[C@H](NC(=O)[C@H](CCC(N)=O)NC(=O)[C@@H](N)CCCNC(=N)N)C(=O)N[C@@H](CCCCN)C(=O)N[C@@H](Cc1c[nH]c2ccccc12)C(=O)N[C@@H](Cc1ccccc1)C(=O)N[C@@H](CCC(N)=O)C(=O)N[C@@H](CC(N)=O)C(=O)N[C@@H](CCCNC(=N)N)C(=O)N[C@@H](CCCNC(=N)N)C(=O)N[C@@H](CCSC)C(=O)N[C@@H](CCCCN)C(=O)N[C@@H](Cc1c[nH]c2ccccc12)C(=O)N[C@@H](CCCCN)C(=O)N[C@@H](CCCCN)C(=O)N[C@@H](CC(C)C)C(=O)N[C@@H](Cc1c[nH]c2ccccc12)C(=O)N[C@@H](CCC(=O)O)C(=O)N[C@@H](CCCCN)C(=O)N[C@@H](CO)C(=O)N[C@@H](CC(=O)O)C(=O)N[C@@H](CC(C)C)C(=O)N[C@@H](CC(=O)O)C(=O)N[C@@H](CC(C)C)C(=O)N[C@@H](CC(C)C)C(=O)N[C@@H](CO)C(=O)N[C@@H](CCCNC(=N)N)C(=O)N[C@H](C(=O)N1CCC[C@H]1C(=O)O)C(C)C` [PFmut], for which, on AF4-AF9 interaction [1], the “AF9 binding to GST-AF4 (retention of AF9)” value is “interferes with AF9 binding, but a significant amount of AF9 remains bound in the well”. Besides, in series [5], the “colony forming potential (colonies >50 cells after 14 days)” value is recorded as “neither PFWT nor PFmut have any significant effect”. For the same compound, the solubility is above 50000 µg/mL in “Solubility” (setting [7]) and 1000 µg/mL (≈ 264 µM) in “Solubility” (setting [8]). Also, the “concentration at which activity plateaus” value at AF4-AF9 interaction [6] came out at 40 µg/mL.

For orientation: solubility means how much of the substance goes into solution per volume.

Values taken from patent US7189691B2, “Methods and compositions for treating leukemia” (The Administrators of the Tulane Educational Fund, priority 2004, dated 2007).
